Earlier results in paper PMC11439047 (Nature Communications, 2024).

Test system: P2X1 receptor
Conditions: cited from earlier work

O=C(O)c1cc(C(=O)O)c(C(=O)N(Cc2cccc(Oc3ccccc3)c2)[C@H]2CCCc3ccccc32)cc1C(=O)O [A-317491]
activity for the P2X1 receptor: weak activity
